We go through nine molecules from publication PMC7645381, “Development and application of a high-throughput screening assay for identification of small molecule inhibitors of the P. falciparum reticulocyte binding-like homologue 5 protein” (International Journal for Parasitology: Drugs and Drug …, 2020).

Where “and” joins values, the source holds several entries; their conditions need not be identical. Equal values may be shown once. Read-outs that look alike come from different tables or passages of the source.

Assay [1] deals with P. falciparum Rh5 (Rh5 – basigin interaction) (Plasmodium falciparum, UniProt Q8IFM5). Kind of assay: biochemical. It is filed as binding.
The test system of a further assay is P. falciparum D10. Kind of assay: P. falciparum D10 growth inhibition by flow cytometry. It is filed as cell-based. Particulars: Plasmodium falciparum, D10; growth inhibition by flow cytometry, 12-point dilution series, 72 h. The procedure: Pranlukast and selected analogues were then evaluated in a P. falciparum parasite viability assay. For this assay, we followed the procedure described by [Gamo et al. (2010)], that used lactate dehydrogenase (LDH) as a readout for parasite viability. In this assay, 3D7 parasites were incubated over 72 h in the presence of increasing concentrations of compounds. […]. For a comparison, selected compounds were incubated in the presence of P. falciparum D10 parasites for 72 h (Table 1, Fig. S14) and growth inhibition measured by flow cytometry. […].
A general note: A flow cytometer gives signals particle by particle.

For assay [2], the system named is HepG2 cells. Kind of assay: HepG2 growth inhibition assay. It is filed as cell-based. Particulars: Homo sapiens, 10-point dilution series, 48 h, Cell Titre-Glo. The procedure: HepG2 cells were cultured in Dulbeccos modified eagle's medium (DMEM) supplemented with 10% fetal calf serum (FCS), in a humidified incubator at 37 °C and 5% CO2. Ten-point compound titration assays were performed by treating cells (1 × 10^3) for 48 h in 384 well tissue culture treated plates (Greiner). Cytotoxicity was determined using Cell Titer Glo (Promega) and calculated as a percentage using DMSO as a positive growth control and 10 μM Bortezomib as a negative growth control. EC50 values were calculated using a 4-parameter log dose, non-linear regression analysis, with sigmoidal dose response (variable slope) curve fit using Graph Pad Prism (version 6.05). 0 and 100 constraint parameters were used for curve fitting. […]

The test system of a further assay is D10-PfPHG parasites. Kind of assay: Schizont rupture assay. It is filed as cell-based, P. falciparum. Particulars: 50 and 100 μM, 6 h, flow cytometry. The procedure: D10-PfPHG parasites ([Wilson et al., 2010]) were cultured in human O^+ erythrocytes in RPMI-HEPES culture medium (pH 7.4, 50 μg/mL hypoxanthine, 25 mM NaHCO3, 20 μg/mL gentamicin, 0.5% Albumax II (Thermo Fisher Scientific) according to established protocols ([Trager and Jensen, 1976]) and maintained in an atmosphere of 1% O2, 4% CO2 and 95% N2. For assessment of merozoite invasion after schizont rupture, parasites were tightly synchronised to a 4 h window of invasion using heparin ([Boyle et al., 2010]; [Wilson et al., 2015]) and then grown for a further 42 h. Drug treatments were setup at 2–3% parasitaemia and 1% haematocrit in 50 μL volumes with a 1 in 10 dilution of drug added when parasites were 44–48 h post invasion. After 6 h of drug treatment and immediately after invasion was expected to finish, the assays were treated with 5 μg/mL ethidium bromide (EtBr, Bio-Rad) for 5 min prior to flow cytometry assessment of parasitaemia using a Becton Dickinson Accuri. Gating of newly invaded rings, free merozoites and unruptured late stages was achieved as per published methods ([Wilson et al., 2013]).
To determine if the modest activity of pranlukast and analogues in the parasite viability assay was a consequence of invasion inhibition, rather than inhibition at another stage of blood stage parasite development, we performed an assay that measures the effect of compound treatment on P. falciparum D10 asexual stage transition between late schizont and ring stages ([Wilson et al., 2013]). In this assay, highly synchronised mature schizont-stage parasites were incubated with pranlukast and selected analogues at 50 and 100 μM and the transition to newly invaded ring stage parasites was quantified by flow cytometry. In parallel, the rate of schizont rupture and merozoite release was quantified to assess whether any reduction in newly invaded ring stages was due to a block affecting merozoite release or development. […] Neither DMSO (at the maximal concentration used for the drug treatments of 0.1%) or a non-invasion inhibitory mAb control caused a reduction in merozoite invasion. […] […].

Assay [3] relates to P. falciparum 3D7 parasites. Kind of assay: P. falciparum parasite viability assay (LDH). It is filed as cell-based. To be noted: Plasmodium falciparum, 3D7, 72 h, LDH activity, 10-point dilution series, 72 h; read-out: P. falciparum 3D7 EC50. The method, then:
A modified version of the lactate dehydrogenase (LDH) assay described by [Gamo et al. […] Compounds were pre-dispensed in 384-well plates, RPMI/Albumax growth media was added, and P. falciparum inoculated. Plates were incubated for 72 h and then frozen at −80 °C overnight. LDH activity was quantified with the modified cofactor 3-acetylpyridine adenine dinucleotide (APAD) (Sigma Aldrich) by measuring absorbance of the tetrazolium indicator nitro blue tetrazolium (NBT) (Sigma Aldrich) at 650 nm. Parasite conditions: […] Growth inhibition assay: […] Intermediate compound dilution plates were prepared by dispensing 5 μL from each well of the compound master plate into 11.5 μL of RPMI/Albumax growth media. Duplicate assay plates (384-well) were then prepared by dispensing 0.5 μL of compound from the intermediate dilution plates into 9.5 μL of RPMI/Albumax growth media. […] The final DMSO concentration was 0.1% (to limit toxicity to parasites). […] Evaluation of parasite growth measuring lactate dehydrogenase (LDH) activity: After 72 h of incubation, plates were frozen at −80 °C overnight and then thawed at room temperature for at least 4 h. […] Plates were shaken to ensure mixing and absorbance at 650 nm was monitored using a PerkinElmer Envision plate reader after 30 min of incubation at room temperature. Data were normalised to percent growth inhibition using positive and negative controls and analyzed using TIBCO Spotfire software.

Assay [4] concerns HepG2 cells. Details: method as in Pingaew et al., 2014. Particulars: incubation time of 48 h, MTT assay ref Pingaew et al., 2014; read-out: HepG2 EC50 literature value; cited from earlier work. For orientation: Formazan colour is commonly taken as a measure of viable cells.
Assay [5] in a line: AlphaScreen TruHits counterscreen assay. Particulars: 11 pt titration; flag (POORFIT given as ~); read-out: Basigin_IC50_Counter_TruHits IC50. The method, then: The counterscreen assay was conducted using AlphaScreen TruHits kit (PerkinElmer). Biotinylated acceptor beads and Streptavidin donor beads were both diluted in assay buffer (final concentration of 10 μg/mL). Using the Combi-multidrop, 10 μL of each bead solution (20 μg/mL prepared in assay buffer) was added to every well of the assay plate under subdued lighting. Compound addition and assay readout was performed as described above.
(Bead proximity is the source of the signal in Alpha formats.)

The nature of assay [6]: Basigin_IC50_Counter_Alpha counterscreen. To be noted: 11 pt titration; flag (POORFIT given as ~). From the text:
Supplement mmc3.xlsx, sheet "Report" | column: Basigin_IC50_Counter_Alpha IC50

Setting [7] is: 11 pt titration of the 45 hits, flag (POORFIT given as ~), two lines per compound, read-out: Basigin_IC50_Assay_Alpha IC50.

Sequence of P. falciparum Rh5 (Rh5 – basigin interaction) (Q8IFM5 24-526): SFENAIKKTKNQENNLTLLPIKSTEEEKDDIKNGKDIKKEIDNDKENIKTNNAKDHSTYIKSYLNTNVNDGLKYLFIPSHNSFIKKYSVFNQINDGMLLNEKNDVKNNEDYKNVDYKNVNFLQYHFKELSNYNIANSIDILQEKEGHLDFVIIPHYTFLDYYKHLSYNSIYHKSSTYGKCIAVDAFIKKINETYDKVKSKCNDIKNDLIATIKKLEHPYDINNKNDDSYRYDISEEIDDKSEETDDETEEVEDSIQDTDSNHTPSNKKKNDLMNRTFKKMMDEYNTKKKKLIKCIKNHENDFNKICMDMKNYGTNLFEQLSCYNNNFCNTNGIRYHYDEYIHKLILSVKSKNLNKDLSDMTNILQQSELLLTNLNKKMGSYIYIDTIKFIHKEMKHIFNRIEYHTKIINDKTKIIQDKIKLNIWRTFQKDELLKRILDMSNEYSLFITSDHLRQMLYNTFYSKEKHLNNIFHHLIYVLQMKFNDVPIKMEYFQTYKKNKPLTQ

`O=C(Nc1cccc2c(=O)cc(C(=O)O)oc12)c1ccc(OCCCCc2ccccc2)cc1` [Compound 18, 4-Oxo-8-(4-(4-phenylbutoxy)benzamido)-4H-chromene-2-carboxylic acid]: the midpoint of inhibition in assay [1], the IC50, lay at 21 µM. Moreover, the EC50 (commonly the concentration giving half of the maximal effect) was 42 µM in the assay with P. falciparum D10, greater than 50 µM in the assay on HepG2 cells [2] and greater than 50 µM in assay [3]. Also, the free merozoite numbers entry in the assay on D10-PfPHG parasites is “similarly reduced numbers of free merozoites”. Besides, in the assay with D10-PfPHG parasites, the “merozoite invasion (newly invaded early ring stages)” value was “reduction in numbers of merozoites that had invaded and formed early ring stages”.
With `COc1cc([C@@H]2c3cc4c(cc3[C@@H](O[C@@H]3O[C@@H]5CO[C@@H](C)O[C@H]5[C@H](O)[C@H]3O)[C@H]3COC(=O)[C@H]23)OCO4)cc(OC)c1O` [Etoposide, reference compound], the EC50 in the assay on HepG2 cells [4] was 30.2 µM; with HepG2 cells [2], 15.9 µM.
For the molecule `CCCN1CCc2cccc3c2[C@H]1Cc1ccc(O)c(O)c1-3` [WEHI-1215034], the IC50 – broadly, the point on the concentration scale where inhibition reaches its midpoint – in assay [1] (setting [7]) is 1.56 µM and 2.23 µM; in assay [5] it was greater than 25 µM; in assay [6], 20 µM and 22.9 µM.
Turning to `CN1CCc2cc(O)cc3c2[C@H]1Cc1ccc(O)c(O)c1-3` [WEHI-1215043], the IC50 is 4.02 µM and 4.98 µM in assay [1] (setting [7]); greater than 25 µM in assay [5]; greater than 25 µM in assay [6].
`CCCN1CCc2cc(O)cc3c2[C@H]1Cc1ccc(O)c(O)c1-3` [WEHI-1215052]: the IC50 was 7.45 µM and 8.43 µM in assay [1] (setting [7]); greater than 25 µM in assay [5]; greater than 25 µM in assay [6].
For `CC(=O)N1CCN(c2ccc(OC[C@@H]3CO[C@@](Cn4ccnc4)(c4ccc(Cl)cc4Cl)O3)cc2)CC1` [WEHI-1215227], the IC50 in assay [1] (setting [7]) was 15.4 µM and 13.9 µM; in assay [5], 23.2 µM and 22.1 µM; in assay [6], 13.5 µM and 12.1 µM.
Turning to `CN1CCc2cccc3c2[C@H]1Cc1ccc(O)c(O)c1-3` [WEHI-1216442], the IC50 was ~4.07 µM and 4.14 µM in assay [1] (setting [7]); greater than 25 µM in assay [5]; greater than 25 µM in assay [6].
Turning to `O=C(Nc1cccc2c(=O)cc(-c3nnn[nH]3)oc12)c1ccc(OCCCCc2ccccc2)cc1` [WEHI-1216506], the IC50 in assay [1] (setting [7]) was 5.28 µM and ~5.6 µM; in assay [5], 24.8 µM and > 25 µM; in assay [6], 10.4 µM and 12.5 µM.
In the case of `COCCCOc1ccnc(C[S+]([O-])c2nc3ccccc3[nH]2)c1C` (centres unmarked) [WEHI-1216602], the IC50 in assay [1] (setting [7]) is 1.08 µM and 1.23 µM; in assay [5], greater than 25 µM; in assay [6] it was greater than 25 µM.
